ChEMBL document CHEMBL1201862, “PubChem BioAssay data set” (2004)
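In this assay, cells in 96-well plates receive the compound at five concentrations for 48 hours. Endpoints are linearly interpolated between the surrounding concentrations. At the GI50, growth is halved.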 Activity calls are given as the source filed them. No stated cut-off is given here; in the data, active = GI50 up to about 1.1 µM and inactive = higher.

Legend:
Experiment in all cases: inhibition of tumour cell growth, NCI panel, 48 h
LOX IMVI = tested on: LOX IMVI
HL-60 = tested on: HL-60
EKVX = tested on: EKVX
SF-295 = tested on: SF-295
IGROV-1 = tested on: IGROV-1
NCI-H226 = tested on: NCI-H226
DMS-273 = tested on: DMS-273
OVCAR-8 = tested on: OVCAR-8
NCI-H522 = tested on: NCI-H522
HCT-116 = tested on: HCT-116
U-251 = tested on: U-251
SW-620 = tested on: SW-620
OVCAR-5 = tested on: OVCAR-5
CCRF-CEM = tested on: CCRF-CEM
SNB-75 = tested on: SNB-75
NCI/ADR-RES = tested on: NCI/ADR-RES
MDA-MB-435 = tested on: MDA-MB-435
DU-145 = tested on: DU-145
PC-3 = tested on: PC-3
T47D = tested on: T47D

SMILES | GI50 (LOX IMVI) | GI50 (HL-60) | GI50 (EKVX) | GI50 (SF-295) | GI50 (IGROV-1) | GI50 (NCI-H226) | GI50 (DMS-273) | GI50 (OVCAR-8) | GI50 (NCI-H522) | GI50 (HCT-116) | GI50 (U-251) | GI50 (SW-620) | GI50 (OVCAR-5) | GI50 (CCRF-CEM) | GI50 (SNB-75) | GI50 (NCI/ADR-RES) | GI50 (MDA-MB-435) | GI50 (DU-145) | GI50 (PC-3) | GI50 (T47D)
O=P1(Oc2ccccc2)C(c2ccccc2)C(c2ccccc2)=NN1c1ccccc1 (stereo not drawn) | 17.3 µM (inactive) | 15.8 µM (inactive) | 37.3 µM (inactive) | 28.2 µM (inactive) | 26.2 µM (inactive) | 23.5 µM (inactive) | 30.3 µM (inactive) | 37 µM (inactive) | 19 µM (inactive) | 17.2 µM (inactive) | 18 µM (inactive) | 21.5 µM (inactive) | 25.4 µM (inactive) | 30.4 µM (inactive) | 30 µM (inactive) |  |  |  |  | 
C=C(NC(=O)C(=C)NC(=O)c1csc(C2=NC3c4csc(n4)C4NC(=O)c5csc(n5)C(C(C)(O)C(C)O)NC(=O)C5CSC(=N5)/C(=C/C)NC(=O)C(C(C)O)NC(=O)c5csc(n5)C3(CC2)NC(=O)C(C)NC(=O)C(=C)NC(=O)C(C)NC(=O)C(C(C)CC)NC2C=Cc3c(C(C)O)cc(nc3C2O)C(=O)OC4C)n1)C(N)=O (stereo not drawn) | 1.08 µM (active) | 2.69 µM (inactive) | 18.2 µM (inactive) | 4 µM (inactive) | 9.06 µM (inactive) | 1.9 µM (inactive) | 1.37 µM (inactive) |  | 0.287 µM (active) | 0.51 µM (active) | 1.57 µM (inactive) | 0.412 µM (active) | 11.8 µM (inactive) | 0.297 µM (active) | 1.82 µM (inactive) | > 58.3 µM (inactive) |  |  |  | 
C[C@H]1CC(=O)C2=CCCC3(SCCCS3)[C@@H]2[C@H]1CO | > 100 µM (inactive) | 27.1 µM (inactive) | > 100 µM (inactive) | > 100 µM (inactive) | > 100 µM (inactive) | > 100 µM (inactive) | > 100 µM (inactive) | > 100 µM (inactive) | > 100 µM (inactive) | 89.5 µM (inactive) | 91.4 µM (inactive) | > 100 µM (inactive) | > 100 µM (inactive) | 26.9 µM (inactive) | > 100 µM (inactive) |  |  |  |  | 
N#C/C(=C\c1ccc2ccccc2c1)C(=O)c1ccccc1 | 26.1 µM (inactive) | 30.9 µM (inactive) | > 100 µM (inactive) | > 54.6 µM (inactive) | > 100 µM (inactive) | > 100 µM (inactive) | > 100 µM (inactive) | 33.7 µM (inactive) | > 92 µM (inactive) | > 61.4 µM (inactive) | 21.9 µM (inactive) | 42.4 µM (inactive) | > 100 µM (inactive) | 23.8 µM (inactive) | 93.1 µM (inactive) |  | 19.4 µM (inactive) | > 100 µM (inactive) | 51.5 µM (inactive) | 36 µM (inactive)
COc1cc(/C=C\c2ccc(C)cc2)cc(OC)c1OC | 0.00433 µM (active) | 0.00057 µM (active) | 0.0721 µM (active) | 0.00188 µM (active) | 0.0466 µM (active) | 0.0266 µM (active) | 0.0012 µM (active) | 0.00822 µM (active) | 0.00323 µM (active) | 0.00106 µM (active) | 0.00441 µM (active) | 0.00192 µM (active) | 0.116 µM (active) | 0.00227 µM (active) | 0.00281 µM (active) | 0.00767 µM (active) | 0.00264 µM (active) | 0.0234 µM (active) | 0.0123 µM (active) | 
